According to ChEMBL document CHEMBL1153188, “Quinoline-3-carboxamide containing sulfones as liver X receptor (LXR) agonists with binding selectivity for LXRbeta and low blood-brain penetration” (Bioorg Med Chem Lett, 2010):

Columns and labels:
THP-1 [1] = experiment: Stimulation of [3H]cholesterol efflux in human THP1 foam cells loaded with ac-LDL relative to TO901317; type: functional, cell-based
[2] = molecular target: T1, Oxysterols receptor LXR-beta (Homo sapiens, UniProt P55055); experiment: Displacement of [3H]TO901317 from human recombinant LXRbeta expressed in Escherichia coli by flashplate method
[3] = molecular target: T2, Oxysterols receptor LXR-alpha (Homo sapiens, UniProt Q13133); experiment: Displacement of [3H]TO901317 from human recombinant LXRalpha expressed in Escherichia coli by flashplate method
T2 sequence (Q13133 whole entry): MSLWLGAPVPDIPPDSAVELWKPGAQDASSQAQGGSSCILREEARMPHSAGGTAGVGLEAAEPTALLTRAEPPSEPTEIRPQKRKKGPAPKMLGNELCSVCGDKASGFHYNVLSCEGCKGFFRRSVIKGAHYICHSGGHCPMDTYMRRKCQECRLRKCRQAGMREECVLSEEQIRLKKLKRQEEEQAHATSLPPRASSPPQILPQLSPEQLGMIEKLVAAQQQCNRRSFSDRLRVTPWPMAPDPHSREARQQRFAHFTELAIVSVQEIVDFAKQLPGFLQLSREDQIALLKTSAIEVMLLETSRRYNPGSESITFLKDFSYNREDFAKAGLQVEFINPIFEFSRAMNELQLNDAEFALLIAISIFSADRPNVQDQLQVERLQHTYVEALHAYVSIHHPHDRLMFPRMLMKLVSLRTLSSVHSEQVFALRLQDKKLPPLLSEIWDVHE

THP-1 [4] = experiment: Effect on ABCA1 gene expression in human differentiated THP1 cells; type: functional, cell-based
THP-1 [5] = experiment: Effect on ABCA1 gene expression in human differentiated THP1 cells relative to TO901317; type: functional
HepG2 [6] = experiment: Effect on triglyceride accumulation in human HepG2 cells; type: functional, cell-based
HepG2 [7] = experiment: Effect on triglyceride accumulation in human HepG2 cells relative to TO901317; type: functional
[8] = molecular target: T1, Oxysterols receptor LXR-beta
[9] = molecular target: T2, Oxysterols receptor LXR-alpha
Plasma [10] = experiment: AUC (0 to infinity) in Long Evans rat brain at 10 mg/kg, po; type: ADME, organism-based; design: time infinity, dose 10 mg/kg, route oral; conditions: in vivo
[11] = Ratio of AUC (0 to infinity) in brain to AUC (0 to infinity) in plasma in Long Evans rat at 10 mg/kg, po; type: ADME, organism-based; design: dose 10 mg/kg, route oral; conditions: brain and plasma
THP-1 [12] = experiment: Stimulation of [3H]cholesterol efflux in human THP1 foam cells loaded with ac-LDL; type: functional, cell-based
[13] = Cmax in Long Evans rat plasma at 10 mg/kg, po; type: ADME, organism-based; design: dose 10 mg/kg, route oral
Plasma [14] = experiment: AUC (0 to infinity) in Long Evans rat plasma at 10 mg/kg, po; type: ADME, organism-based; design: time infinity, dose 10 mg/kg, route oral; conditions: in vivo
[15] = Cmax in Long Evans rat brain at 10 mg/kg, po; type: ADME, organism-based; design: dose 10 mg/kg, route oral
[16] = Ratio of AUC (0 to infinity) in brain to AUC (0 to infinity) in plasma in Long Evans rat at 30 mg/kg, po; type: ADME, organism-based; design: dose 30 mg/kg, route oral; conditions: brain and plasma
[17] = Cmax in Long Evans rat plasma at 30 mg/kg, po; type: ADME, organism-based; design: dose 30 mg/kg, route oral
Plasma [18] = experiment: AUC (0 to infinity) in Long Evans rat plasma at 30 mg/kg, po; type: ADME, organism-based; design: time infinity, dose 30 mg/kg, route oral; conditions: in vivo
[19] = Cmax in Long Evans rat brain at 30 mg/kg, po; type: ADME, organism-based; design: dose 30 mg/kg, route oral
Plasma [20] = experiment: AUC (0 to infinity) in Long Evans rat brain at 30 mg/kg, po; type: ADME, organism-based; design: time infinity, dose 30 mg/kg, route oral; conditions: in vivo

T1 sequence (P55055 whole entry): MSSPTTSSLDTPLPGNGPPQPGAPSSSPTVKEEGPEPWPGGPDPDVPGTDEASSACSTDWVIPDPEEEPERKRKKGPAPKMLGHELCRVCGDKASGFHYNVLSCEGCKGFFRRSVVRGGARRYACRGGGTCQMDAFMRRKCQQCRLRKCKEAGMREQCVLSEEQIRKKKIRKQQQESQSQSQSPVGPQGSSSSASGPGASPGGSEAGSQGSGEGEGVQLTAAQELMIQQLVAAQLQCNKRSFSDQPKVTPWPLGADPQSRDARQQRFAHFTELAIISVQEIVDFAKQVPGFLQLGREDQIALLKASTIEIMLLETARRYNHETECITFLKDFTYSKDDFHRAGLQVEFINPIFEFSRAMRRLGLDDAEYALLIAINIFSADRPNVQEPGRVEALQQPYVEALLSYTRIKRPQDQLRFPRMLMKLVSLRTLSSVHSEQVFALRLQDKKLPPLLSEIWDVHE

| Structure (SMILES) | IC50 [2] [nM] | IC50 [3] [nM] | other results |
| --- | --- | --- | --- |
| O=C(O)Cc1ccc(COc2cccc(-c3c(Cc4ccccc4)cnc4c(C(F)(F)F)cccc34)c2)cc1 | – | – | Activity (THP-1 [1]): 88% |
| CCS(=O)(=O)c1cccc(Oc2cccc(-c3c(C(N)=O)cnc4c(C(F)(F)F)cccc34)c2)c1 | 11 | 453 | – |
| CCOC(=O)c1cnc2c(C(F)(F)F)cccc2c1-c1cccc(Oc2cccc(S(C)(=O)=O)c2)c1 | 2 | 6.6 | – |
| CS(=O)(=O)c1cccc(Oc2cccc(-c3c(C(=O)O)cnc4c(C(F)(F)F)cccc34)c2)c1 | 1080 | 6350 | – |
| CS(=O)(=O)c1cccc(Oc2cccc(-c3c(-n4cnnn4)cnc4c(C(F)(F)F)cccc34)c2)c1 | 5290 | 26600 | – |
| CS(=O)(=O)c1cccc(Oc2cccc(-c3c(CN)cnc4c(C(F)(F)F)cccc34)c2)c1 | 77 | 445 | – |
| CS(=O)(=O)c1cccc(Oc2cccc(-c3c(C(=N)N)cnc4c(C(F)(F)F)cccc34)c2)c1 | 5130 | 29800 | – |
| CS(=O)(=O)c1cc(F)cc(Oc2cccc(-c3c(C(N)=O)cnc4c(C(F)(F)F)cccc34)c2)c1 | 18 | 552 | – |
| CS(=O)(=O)c1cccc(Oc2cccc(-c3c(C(N)=O)cnc4c(C(F)(F)F)cccc34)c2)c1 | 18 | 600 | EC50 (THP-1 [4]): 110 nM; Efficacy (THP-1 [5]): 104%; EC50 (HepG2 [6]): 370 nM; Efficacy (HepG2 [7]): 47%; EC50 [8]: 1600 nM; EC50 [9]: 4500 nM |
| CNC(=O)c1cnc2c(C(F)(F)F)cccc2c1-c1cccc(Oc2cccc(S(C)(=O)=O)c2)c1 | 367 | > 10000 | – |
| CS(=O)(=O)c1cccc(Oc2cccc(-c3c(C(N)=O)cnc4c(Cl)cccc34)c2)c1 | 16 | 543 | AUC (Plasma [10]): 457 ng/mL; Kp [11]: 0.08; EC50 (THP-1 [4]): 440 nM; Efficacy (THP-1 [5]): 107%; EC50 (HepG2 [6]): 1250 nM; Efficacy (HepG2 [7]): 68%; EC50 (THP-1 [12]): 10 nM; Activity (THP-1 [1]): 71%; Cmax [13]: 1270 ng/mL; AUC (Plasma [14]): 5417 ng/mL; Cmax [15]: 107 ng/mL; EC50 [8]: 630 nM; EC50 [9]: 3000 nM |
| CC(C)S(=O)(=O)c1cccc(Oc2cccc(-c3c(C(N)=O)cnc4c(C(F)(F)F)cccc34)c2)c1 | 5 | 286 | – |
| CS(=O)(=O)c1cccc(Oc2cccc(-c3c(C(N)=O)cnc4c(F)cccc34)c2)c1 | 590 | 12700 | – |
| CS(=O)(=O)c1cccc(Oc2cccc(-c3c(C#N)cnc4c(C(F)(F)F)cccc34)c2)c1 | 2.2 | 13.4 | – |
| CCNC(=O)c1cnc2c(C(F)(F)F)cccc2c1-c1cccc(Oc2cccc(S(C)(=O)=O)c2)c1 | 730 | 6860 | – |
| CS(=O)(=O)c1cc(Cl)cc(Oc2cccc(-c3c(C(N)=O)cnc4c(C(F)(F)F)cccc34)c2)c1 | 62 | 1770 | – |
| Cc1cccc2c(-c3cccc(Oc4cccc(S(C)(=O)=O)c4)c3)c(C(N)=O)cnc12 | 28 | 756 | – |
| CCCS(=O)(=O)c1cccc(Oc2cccc(-c3c(C(N)=O)cnc4c(C(F)(F)F)cccc34)c2)c1 | 57 | 1360 | – |
| CS(=O)(=O)c1cccc(Oc2cccc(-c3c(C(N)=O)cnc4ccccc34)c2)c1 | 2850 | > 10000 | – |
| Fc1ccc(-c2c3cccc(C(F)(F)F)c3nn2Cc2ccc(F)cc2Cl)cc1 [LXR-623] | – | – | Kp [16]: 1.2; Efficacy (THP-1 [5]): 100%; EC50 (HepG2 [6]): 1000 nM; Efficacy (HepG2 [7]): 38%; Cmax [17]: 2850 ng/mL; AUC (Plasma [18]): 13057 ng/mL; Cmax [19]: 3530 ng/mL; AUC (Plasma [20]): 15312 ng/mL |
